Source: PMC12735921, “Evaluation of Antiproliferative Activity and Molecular Modeling Studies of Some Novel Benzimidazolone-Bridged Hybrid Compounds” (Pharmaceuticals, 2025)
Values joined by “and” are separate entries in the source; they are usually repeats but may differ in a detail not shown here. Equal values may be shown once.

How the values were obtained:
MCF-7 cells [1] = experiment: Intracellular GSH/GSSG ratio, MCF-7; assay type: cell-based, human; conditions: MCF-7, IC50 concentration of compound, 48 h; H2O2 positive control; mean ± SD, n = 3
Protocol: Intracellular reduced (GSH) and oxidized (GSSG) glutathione levels were measured using the GSH/GSSG Ratio Detection Assay Kit (Cayman Chemical, Ann Arbor, MI, USA, Cat. No: 703002) according to the manufacturer’s protocol. […] After treatment, cells were washed with cold PBS and lysed with MES buffer provided in the kit.
To prevent oxidation of GSH to GSSG during processing, samples were deproteinized using the supplied metaphosphoric acid solution and neutralized accordingly. Total glutathione and GSSG levels were measured separately by adding the appropriate buffers and reagents to the wells of a 96-well plate, followed by the addition of DTNB recycling reagent and glutathione reductase. Absorbance was read at 405 nm using a microplate reader (BMG Labtech, Germany). The amount of GSH was calculated by subtracting 2 × GSSG from the total glutathione, and the GSH/GSSG ratio was used to assess intracellular redox status.

A549 cells [2] = experiment: Cell cycle analysis (PI staining, flow cytometry), A549; assay type: cell-based, human; conditions: A549, IC50 concentration, 48 h, mean ± SEM, n = 3
Protocol: (§1) Cell cycle distribution was assessed by propidium iodide (PI) staining and flow cytometry. HeLa, MCF-7, and A549 cells were seeded in 6-well plates at a density of 1 × 10^5 cells per well and allowed to attach overnight. […] Following exposure, both adherent and floating cells were collected, washed twice with cold phosphate-buffered saline (PBS, pH 7.4), and fixed overnight in 70% cold ethanol at 4 °C. After fixation, the cells were centrifuged and resuspended in 500 µL of PI/RNase staining solution containing 50 µg/mL PI and 100 µg/mL RNase A (Sigma-Aldrich®, St. Louis, MO, USA), followed by incubation in the dark for 30 min at 37 °C. The stained samples were analyzed using a Muse™ Cell Analyzer (Merck, Millipore, Germany) equipped with a 488 nm excitation laser and a 617 nm emission filter. A minimum of 10,000 events per sample were acquired after exclusion of debris and doublets via FSC-A vs. FSC-H gating. The DNA content histograms were generated automatically, and cell populations were expressed as percentages of G0/G1, S, and G2/M phases using the Muse™ Cell Cycle Analysis Software 1.5.0.0. All assays were conducted in triplicate biological repeats (n = 3), and results were reported as mean ± SEM.

MCF-7 cells [3] = experiment: Cell cycle analysis (PI staining, flow cytometry), MCF-7; assay type: cell-based, human; conditions: MCF-7, IC50 concentration, 48 h, mean ± SEM, n = 3
Protocol: as §1

MCF-7 cells [4] = experiment: Total oxidative status (TOS), MCF-7; assay type: cell-based, human; conditions: MCF-7, IC50 concentration of compound, 48 h; H2O2 250 µM positive control; mean ± SD, n = 3
Protocol: (§2) TOS were evaluated using a commercially available kit (Rel Assay Diagnostics®, Gaziantep, Turkey) according to the manufacturer’s instructions. […] The TOS assay quantifies oxidizing agents based on their ability to convert an iron (II) ion chelator complex to iron (III) ions. The results were calibrated against hydrogen peroxide (H2O2, 250 µM) as a positive control for 48 h and expressed as µmol H2O2 equivalents per liter. The analysis was performed in three independent biological replicates (n = 3).

[5] = tested on: A549, MCF-7, and HeLa cells; experiment: MTT cell viability assay, ranges stated across the cancer cell lines; assay type: cell-based; conditions: Homo sapiens, range over the three cancer cell lines, 48 h
Protocol: Cell viability assay was performed on the human lung cancer (A549) (ATCC CCL-185), human breast cancer (MCF-7) (ATCC-HTB-22), cervical cancer (HeLa) (ATCC-CCL-2), and human embryonic kidney 293 (HEK293) (ATCC-CRL-1573) cell lines, which were purchased from Deutsche Sammlung von Mikroorganismen und Zellkulturen (DSMZ, Braunschweig, Germany). The cells were maintained in Dulbecco’s modified Eagle’s medium (DMEM), supplemented with 10% fetal bovine serum (FBS), 2 mM L-glutamine, 100 U/mL penicillin, and 100 mg/L streptomycin (Biochrom AG, Berlin, Germany) at 37 °C in a humidified atmosphere of 5% CO2.
The cytotoxic effect was determined by the MTT (3-(4,5-dimethyl-2-thiazolyl)-2,5-diphenyl-2H-tetrazolium bromide) cell viability assay. Cells were seeded at an initial concentration of 1 × 10^5 cells/mL in 96-well microplates. […] After the incubation period, the formed formazan crystals were dissolved in dimethyl sulfoxide (DMSO), and the optical density (OD) of the compounds was measured at 570 nm using a spectrophotometer (BMG Labtech, Ortenberg, Germany). Cytotoxicity was expressed as an increase in the mean percentage of cytotoxicity relative to the unexposed control ± standard deviation (SD). […] IC50 was calculated by fitting the data to a sigmoidal curve using a four-parameter logistic model and was presented as an average of three independent measurements. […]

MCF-7 cells [6] = experiment: LDH leakage assay, MCF-7; assay type: cell-based, human; conditions: MCF-7, IC50 concentration of compound, 48 h; H2O2 positive control; mean ± SD, n = 3
Protocol: (§3) One hundred microliters of culture medium was transferred to a new 96-well plate. One hundred microliters of LDH reaction solution was added to each well, and absorbance was measured at 490 nm using an ELISA plate reader (BMG Labtech, Ortenberg, Germany) after 30 min.

A549 cells [7] = experiment: MTT cell viability assay, A549; assay type: cell-based, human
Outline: (§4)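 Cells exposed to compounds at 0.5–200 µM for 48 h in DMEM with 10% FBS at 37 °C, 5% CO2; formazan dissolved in DMSO and read at 570 nm. Cytotoxicity relative to untreated control; IC50 from four-parameter logistic fit, mean of three independent measurements, triplicate samples.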

HeLa cells [8] = experiment: Total oxidative status (TOS), HeLa; assay type: cell-based, human; conditions: IC50 concentration of compound, 48 h, H2O2 250 µM positive control, mean ± SD, n = 3
Protocol: as §2

HeLa cells [9] = experiment: LDH leakage assay, HeLa; assay type: cell-based, human; conditions: IC50 concentration of compound, 48 h, H2O2 positive control, mean ± SD, n = 3
Protocol: as §3

MCF-7 cells [10] = experiment: MTT cell viability assay, MCF-7; assay type: cell-based, human
Outline: as §4

For `O=C(O)Cn1c(=O)n(CC(=O)O)c2cc(Cl)c(Cl)cc21` [Compound 6, 2,2′-(5,6-Dichloro-2-oxo-1H-benzo[d]imidazole-1,3(2H)-diyl)diacetic Acid], the GSH/GSSG (MCF-7 cells [1]) was 12.1 ± 1.2 nmol/mg Protein and 12.1 ± 1.2 ^a,b nmol/mg Protein, the “cells in G0/G1 phase” value (A549 cells [2]) was 59.8 ± 2.0% and the “cells in G2/M phase” value (A549 cells [2]) was 19.6 ± 1.4%. The “cells in S phase” value (A549 cells [2]) was 20.6 ± 1.5%, the “cells in G0/G1 phase” value (MCF-7 cells [3]) was 66.1 ± 1.9% and the “cells in G2/M phase” value (MCF-7 cells [3]) was 14.9 ± 1.3%. The “cells in S phase” value (MCF-7 cells [3]) was 19.0 ± 1.4%, the TOS (MCF-7 cells [4]) was 6.9 ± 0.5 µmol H2O2 eq/L and 6.9 ± 0.5 ^a,b µmol H2O2 eq/L and the IC50 [5] was 28.3 to 31.2 µM. For the same compound, the LDH (MCF-7 cells [6]) was 22.7 ± 1.8 µU/mL and 22.7 ± 1.8 ^a,b µU/mL, the IC50 (A549 cells [7]; Homo sapiens, A549, MTT, 48 h, mean ± SD, n = 3) was 30.6 ± 1.76 µM and the “A549 Selectivity Index (SI)” value (A549 cells [7]; SI = IC50 (HEK 293)/IC50 (A549)) was 2.04. For the same compound, the TOS (HeLa cells [8]) was 7.8 ± 0.6 µmol H2O2 eq/L and 7.8 ± 0.6 ^a,b µmol H2O2 eq/L, the LDH (HeLa cells [9]) was 27.3 ± 2.5 µU/mL and 27.3 ± 2.5 ^a,b µU/mL and the IC50 (MCF-7 cells [10]; Homo sapiens, MCF7, MTT, 48 h, mean ± SD, n = 3) was 28.3 ± 1.63 µM. The “MCF-7 Selectivity Index (SI)” value (MCF-7 cells [10]; SI = IC50 (HEK 293)/IC50 (MCF-7)) was 2.21.
